Assay results reported in patent US5112804A, “Pharmaceutical composition and method of intranasal administration” (Temple University of the Commonwealth System of Higher …, priority 1989, dated 1992).

Test system: blood glucose level
Test: Insulin absorption animal study, continuous blood glucose monitoring after nasal administration
Assay type: in vivo, dog
Details: dogs
Text: The hypoglycemic effect of the above preparations was confirmed in animal glucose monitoring studies utilizing continuous glucose monitoring with the device described in J. Clin. Endocrinol. Metab. 53: 1145 (1984). The device consists of a system for nonthrombogenic blood withdrawal coupled to a system for blood glucose measurement. The blood withdrawal system includes a disposable sterile intravenous needle and catheter connected to a peristaltic pump. The inside wall of the catheter is coated with tridodecyclmethylammonium chloride complexed with heparin to provide a nonthrombogenic surface. Blood is continuously withdrawn at a rate of 12 ml/hr from the experimental animal via the nonthrombogenic catheter. The blood is diluted in a Plexiglass mixing chamber with six volumes of phosphate buffer solution (0.015 M; pH 7.4) containing 10 IU/ml heparin and then moved into the device's sensory chamber. […]
Six preconditioned female mongrel hound dogs treated for worms, weighing 19-20 kg, were fasted overnight and anesthetized in the morning with intravenous "NEMBUTAL" sodium pentobarbital (250 mg initial dose, 25 mg every 30 minutes for maintenance). […] Blood glucose level was continuously monitored. The resulting decrease in blood glucose level for the insulin dosages in Table 1 are recorded in FIGS. 1 to 12.

CC1(C)[C@@H](O)CC[C@]2(C)[C@H]3C(=O)C=C4[C@@H]5C[C@@](C)(C(=O)O)CC[C@]5(C)CC[C@@]4(C)[C@]3(C)CC[C@@H]12 [glycyrrhetinic acid]
enhancing absorption of insulin across the nasal membrane: effective
